Test results: the supplement of paper PMC10307832

Experiments:
Experiment in all cases: relative viability (nuclei count vs DMSO), 5 days (fraction); higher = more cells survive
[1] = tested on: ChaGo-K-1
Summary of the method: (§1)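 Nuclei were stained with Hoechst during a one-step fixation (final 0.05% Triton X-100, 1% formaldehyde, 1 ug/ml Hoechst) carried out 5 days after dosing, then counted on 4× images. The cells, lung cancer lines in 1536-well plates, had been dosed by pin tool the day after seeding with one drug alone or a fixed anchor-drug dose plus five library-drug doses (not always all listed) in √10 steps. Relative viability is the nuclei count in treated wells divided by that in vehicle wells, and each value is the median of duplicate plates.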

[2] = tested on: EMC-BAC-2
Summary of the method: as §1

[3] = tested on: EPLC-272H
Summary of the method: as §1

[4] = tested on: HCC-78
Summary of the method: as §1

[5] = tested on: HCC-827
Summary of the method: as §1

[6] = tested on: LCLC-103H
Summary of the method: as §1

[7] = tested on: LK-2
Summary of the method: as §1

[8] = tested on: LOU-NH91
Summary of the method: as §1

[9] = tested on: LU99A
Summary of the method: as §1

[10] = tested on: LXF-289
Summary of the method: as §1

[11] = tested on: NCI-H1563
Summary of the method: as §1

[12] = tested on: NCI-H1666
Summary of the method: as §1

[13] = tested on: NCI-H1975
Summary of the method: as §1

[14] = tested on: NCI-H2085
Summary of the method: as §1

[15] = tested on: NCI-H2126
Summary of the method: as §1

[16] = tested on: NCI-H23
Summary of the method: as §1

[17] = tested on: NCI-H2405
Summary of the method: as §1

[18] = tested on: NCI-H3122
Summary of the method: as §1

[19] = tested on: NCI-H322M
Summary of the method: as §1

[20] = tested on: RERF-LC-KJ
Summary of the method: as §1

[21] = tested on: SK-LU-1
Summary of the method: as §1

[22] = tested on: SW 1573
Summary of the method: as §1

[23] = tested on: SW 900
Summary of the method: as §1

## O=C(O)c1ccc(-c2c[nH]c3ncc(-c4ccccc4)cc23)cc1C1CCCC1 + N=C(N)NC(=N)NCCc1ccccc1 [Phenformin] (partner 250 µM)
[1]; first compound 0.04 µM
  relative viability: 0.477
[1]; first compound 0.1265 µM
  relative viability: 0.541
[1]; first compound 0.4 µM
  relative viability: 0.452
[1]; first compound 1.265 µM
  relative viability: 0.507
[2]; first compound 0.04 µM
  relative viability: 0.513
[2]; first compound 0.1265 µM
  relative viability: 0.554
[2]; first compound 0.4 µM
  relative viability: 0.527
[2]; first compound 1.265 µM
  relative viability: 0.424
[3]; first compound 0.04 µM
  relative viability: 0.357
[3]; first compound 0.1265 µM
  relative viability: 0.295
[3]; first compound 0.4 µM
  relative viability: 0.356
[3]; first compound 1.265 µM
  relative viability: 0.328
[4]; first compound 0.1265 µM
  relative viability: 0.907
[4]; first compound 0.4 µM
  relative viability: 0.828
[4]; first compound 1.265 µM
  relative viability: 0.683
[5]; first compound 0.04 µM
  relative viability: 0.406
[5]; first compound 0.1265 µM
  relative viability: 0.397
[5]; first compound 0.4 µM
  relative viability: 0.43
[5]; first compound 1.265 µM
  relative viability: 0.386
[6]; first compound 0.04 µM
  relative viability: 0.369
[6]; first compound 0.1265 µM
  relative viability: 0.34
[6]; first compound 0.4 µM
  relative viability: 0.389
[6]; first compound 1.265 µM
  relative viability: 0.371
[7]; first compound 0.04 µM
  relative viability: 0.733
[7]; first compound 0.1265 µM
  relative viability: 0.699
[7]; first compound 0.4 µM
  relative viability: 0.377
[7]; first compound 1.265 µM
  relative viability: 0.367
[8]; first compound 0.04 µM
  relative viability: 0.73
[8]; first compound 0.1265 µM
  relative viability: 0.885
[8]; first compound 0.4 µM
  relative viability: 0.799
[8]; first compound 1.265 µM
  relative viability: 0.751
[9]; first compound 0.04 µM
  relative viability: 0.961
[9]; first compound 0.1265 µM
  relative viability: 0.784
[9]; first compound 0.4 µM
  relative viability: 0.865
[9]; first compound 1.265 µM
  relative viability: 0.606
[10]; first compound 0.04 µM
  relative viability: 0.543
[10]; first compound 0.1265 µM
  relative viability: 0.507
[10]; first compound 0.4 µM
  relative viability: 0.485
[10]; first compound 1.265 µM
  relative viability: 0.243
[11]; first compound 0.04 µM
  relative viability: 0.679
[11]; first compound 0.1265 µM
  relative viability: 0.679
[11]; first compound 0.4 µM
  relative viability: 0.634
[11]; first compound 1.265 µM
  relative viability: 0.654
[12]; first compound 0.04 µM
  relative viability: 0.579
[12]; first compound 0.1265 µM
  relative viability: 0.552
[12]; first compound 0.4 µM
  relative viability: 0.508
[12]; first compound 1.265 µM
  relative viability: 0.363
[13]; first compound 0.04 µM
  relative viability: 0.41
[13]; first compound 0.1265 µM
  relative viability: 0.423
[13]; first compound 0.4 µM
  relative viability: 0.388
[13]; first compound 1.265 µM
  relative viability: 0.298
[14]; first compound 0.04 µM
  relative viability: 0.84
[14]; first compound 0.1265 µM
  relative viability: 0.897
[14]; first compound 0.4 µM
  relative viability: 0.688
[14]; first compound 1.265 µM
  relative viability: 0.595
[15]; first compound 0.04 µM
  relative viability: 0.571
[15]; first compound 0.1265 µM
  relative viability: 0.581
[15]; first compound 0.4 µM
  relative viability: 0.505
[15]; first compound 1.265 µM
  relative viability: 0.441
[16]; first compound 0.04 µM
  relative viability: 0.776
[16]; first compound 0.1265 µM
  relative viability: 0.902
[16]; first compound 0.4 µM
  relative viability: 0.814
[16]; first compound 1.265 µM
  relative viability: 0.613
[17]; first compound 0.04 µM
  relative viability: 0.445
[17]; first compound 0.1265 µM
  relative viability: 0.442
[17]; first compound 0.4 µM
  relative viability: 0.382
[17]; first compound 1.265 µM
  relative viability: 0.383
[18]; first compound 0.04 µM
  relative viability: 0.355
[18]; first compound 0.1265 µM
  relative viability: 0.399
[18]; first compound 0.4 µM
  relative viability: 0.394
[18]; first compound 1.265 µM
  relative viability: 0.337
[19]; first compound 0.04 µM
  relative viability: 0.772
[19]; first compound 0.1265 µM
  relative viability: 0.832
[19]; first compound 0.4 µM
  relative viability: 0.782
[19]; first compound 1.265 µM
  relative viability: 0.63
[20]; first compound 0.04 µM
  relative viability: 0.432
[20]; first compound 0.1265 µM
  relative viability: 0.456
[20]; first compound 0.4 µM
  relative viability: 0.389
[20]; first compound 1.265 µM
  relative viability: 0.369
[21]; first compound 0.04 µM
  relative viability: 0.537
[21]; first compound 0.1265 µM
  relative viability: 0.585
[21]; first compound 0.4 µM
  relative viability: 0.459
[21]; first compound 1.265 µM
  relative viability: 0.363
[22]; first compound 0.04 µM
  relative viability: 0.38
[22]; first compound 0.1265 µM
  relative viability: 0.35
[22]; first compound 0.4 µM
  relative viability: 0.276
[22]; first compound 1.265 µM
  relative viability: 0.299
[23]; first compound 0.04 µM
  relative viability: 0.706
[23]; first compound 0.1265 µM
  relative viability: 0.615
[23]; first compound 0.4 µM
  relative viability: 0.654
[23]; first compound 1.265 µM
  relative viability: 0.381

## O=C(O)c1ccc(-c2c[nH]c3ncc(-c4ccccc4)cc23)cc1C1CCCC1 + Nc1nc2[nH]cc(CCc3ccc(C(=O)N[C@@H](CCC(=O)O)C(=O)O)cc3)c2c(=O)[nH]1 [Pemetrexed] (partner 0.2 µM)
[1]; first compound 0.04 µM
  relative viability: 0.249
[1]; first compound 0.1265 µM
  relative viability: 0.255
[1]; first compound 0.4 µM
  relative viability: 0.265
[1]; first compound 1.265 µM
  relative viability: 0.264
[2]; first compound 0.04 µM
  relative viability: 0.451
[2]; first compound 0.1265 µM
  relative viability: 0.465
[2]; first compound 0.4 µM
  relative viability: 0.479
[2]; first compound 1.265 µM
  relative viability: 0.451
[3]; first compound 0.04 µM
  relative viability: 0.369
[3]; first compound 0.1265 µM
  relative viability: 0.336
[3]; first compound 0.4 µM
  relative viability: 0.279
[3]; first compound 1.265 µM
  relative viability: 0.251
[4]; first compound 0.1265 µM
  relative viability: 0.919
[4]; first compound 0.4 µM
  relative viability: 0.881
[4]; first compound 1.265 µM
  relative viability: 0.962
[5]; first compound 0.04 µM
  relative viability: 0.198
[5]; first compound 0.1265 µM
  relative viability: 0.28
[5]; first compound 0.4 µM
  relative viability: 0.287
[5]; first compound 1.265 µM
  relative viability: 0.163
[6]; first compound 0.04 µM
  relative viability: 0.487
[6]; first compound 0.1265 µM
  relative viability: 0.463
[6]; first compound 0.4 µM
  relative viability: 0.495
[6]; first compound 1.265 µM
  relative viability: 0.481
[7]; first compound 0.04 µM
  relative viability: 0.172
[7]; first compound 0.1265 µM
  relative viability: 0.344
[7]; first compound 0.4 µM
  relative viability: 0.317
[7]; first compound 1.265 µM
  relative viability: 0.276
[8]; first compound 0.04 µM
  relative viability: 0.419
[8]; first compound 0.1265 µM
  relative viability: 0.404
[8]; first compound 0.4 µM
  relative viability: 0.414
[8]; first compound 1.265 µM
  relative viability: 0.435
[9]; first compound 0.04 µM
  relative viability: 0.166
[9]; first compound 0.1265 µM
  relative viability: 0.192
[9]; first compound 0.4 µM
  relative viability: 0.187
[9]; first compound 1.265 µM
  relative viability: 0.202
[10]; first compound 0.04 µM
  relative viability: 0.912
[10]; first compound 0.1265 µM
  relative viability: 0.905
[10]; first compound 0.4 µM
  relative viability: 0.786
[10]; first compound 1.265 µM
  relative viability: 0.627
[11]; first compound 0.04 µM
  relative viability: 0.698
[11]; first compound 0.1265 µM
  relative viability: 0.948
[11]; first compound 0.4 µM
  relative viability: 0.789
[11]; first compound 1.265 µM
  relative viability: 0.892
[12]; first compound 0.04 µM
  relative viability: 0.753
[12]; first compound 0.1265 µM
  relative viability: 0.917
[12]; first compound 0.4 µM
  relative viability: 0.879
[12]; first compound 1.265 µM
  relative viability: 0.809
[13]; first compound 0.04 µM
  relative viability: 0.301
[13]; first compound 0.1265 µM
  relative viability: 0.298
[13]; first compound 0.4 µM
  relative viability: 0.284
[13]; first compound 1.265 µM
  relative viability: 0.28
[14]; first compound 0.04 µM
  relative viability: 0.821
[14]; first compound 0.1265 µM
  relative viability: 0.951
[14]; first compound 0.4 µM
  relative viability: 0.882
[14]; first compound 1.265 µM
  relative viability: 0.654
[15]; first compound 0.04 µM
  relative viability: 0.741
[15]; first compound 0.1265 µM
  relative viability: 0.66
[15]; first compound 0.4 µM
  relative viability: 0.707
[15]; first compound 1.265 µM
  relative viability: 0.666
[16]; first compound 0.04 µM
  relative viability: 0.756
[16]; first compound 0.1265 µM
  relative viability: 0.885
[16]; first compound 0.4 µM
  relative viability: 0.683
[16]; first compound 1.265 µM
  relative viability: 0.66
[17]; first compound 0.04 µM
  relative viability: 1.05
[17]; first compound 0.1265 µM
  relative viability: 1.15
[17]; first compound 0.4 µM
  relative viability: 0.959
[17]; first compound 1.265 µM
  relative viability: 0.648
[18]; first compound 0.04 µM
  relative viability: 0.204
[18]; first compound 0.1265 µM
  relative viability: 0.202
[18]; first compound 0.4 µM
  relative viability: 0.217
[18]; first compound 1.265 µM
  relative viability: 0.21
[19]; first compound 0.04 µM
  relative viability: 0.632
[19]; first compound 0.1265 µM
  relative viability: 0.586
[19]; first compound 0.4 µM
  relative viability: 0.589
[19]; first compound 1.265 µM
  relative viability: 0.547
[20]; first compound 0.04 µM
  relative viability: 0.466
[20]; first compound 0.1265 µM
  relative viability: 0.469
[20]; first compound 0.4 µM
  relative viability: 0.481
[20]; first compound 1.265 µM
  relative viability: 0.481
[21]; first compound 0.04 µM
  relative viability: 0.909
[21]; first compound 0.1265 µM
  relative viability: 0.987
[21]; first compound 0.4 µM
  relative viability: 0.882
[21]; first compound 1.265 µM
  relative viability: 0.548
[22]; first compound 0.04 µM
  relative viability: 0.808
[22]; first compound 0.1265 µM
  relative viability: 0.762
[22]; first compound 0.4 µM
  relative viability: 0.779
[22]; first compound 1.265 µM
  relative viability: 0.63
[23]; first compound 0.04 µM
  relative viability: 0.476
[23]; first compound 0.1265 µM
  relative viability: 0.471
[23]; first compound 0.4 µM
  relative viability: 0.451
[23]; first compound 1.265 µM
  relative viability: 0.473
